Columns and labels:
5-Lipoxygenase = experiment: ARBL whole cell 5-lipoxygenase assay (LTB4 formation in RBL-1 cells); assay type: cell-based, rat; conditions: 10 μm concentration, A23187 stimulated, LTB4 by RIA
Method: (§1) ARBL/ARBC Whole Cell 5-Lipoxygenase and Cyclooxygenase Assays The rat basophilic leukemia cell line (RBL 1) was obtained from the American Type Culture Collection (Rockville, Md.). Radioimmunoassay (RIA) kits of LTB4 and PGF2α were obtained from Amersham (Arlington Heights, Ill.) and Seragen (Boston, Mass.), respectively. RBL-1 cells are grown in suspension culture in Eagle's minimum essential medium supplemented with 12% fetal bovine serum at 37° C. in an incubator supplied with air 5% carbon dioxide. Cells are harvested by centrifugation. They are washed with cold phosphate buffered saline pH 7.4 (PBS; NaCl, 7.1 g; Na2 HPO4, 1.15 g; KH2 PO4, 0.2 g; and KCl, 0.2 g/l). Cells are finally suspended in PBS containing 1.0 mM calcium at a density of 2×10^6 cells/ml. Cells are incubated with and without test agent (in DMSO) (1% DMSO is without effect on arachidonic acid metabolism) for ten minutes at room temperature. Calcium ionophore A23187 (5 μM) is added and cells are incubated for seven minutes at 37° C. The reaction is stopped by chilling the tubes on ice for ten minutes. Cells are separated by centrifugation and the supernatant is stored at -20°. Aliquots (100 μl) are analyzed for LTB4 and PGF2α using radioimmunoassay kits as provided by the supplier. […]

Cyclooxygenase = experiment: ARBC whole cell cyclooxygenase assay (PGF2α formation in RBL-1 cells); assay type: cell-based, rat; conditions: 10 μm, A23187 stimulated, PGF2α by RIA
Method: as §1

CN1OCC/C(=C\c2nc(C(C)(C)C)c(O)c(C(C)(C)C)n2)C1=O [(E)-4-[[4,6-Bis(1,1-dimethylethyl)-5-hydroxy-2-pyrimidinyl]methylene]tetrahydro-2-methyl-2H-1,2-oxazin-3-one]
inhibition for ARBL (5-Lipoxygenase): 84% | inhibition for ARBC (Cyclooxygenase): 88%

From patent US5215986A, “5-hydroxy-2-pyrimidinylmethylene oxaza heterocycles” (Warner-Lambert Company, priority 1992, dated 1993)
